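Where inhibition never reached the appropriate level, the endpoint shown equals the highest concentration tested. Otherwise, values were interpolated linearly from a five-concentration, 48-hour dose response in 96-well plates. TGI: concentration producing complete growth inhibition.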 Some results are limits rather than exact numbers.

This is an account of results in PubChem BioAssay (NCI).

What all share (assay): NCI tumour cell line growth inhibition, 48 h
The subject of assay [1] is UACC-257 melanoma.
Assay [2] has as its system BT-549 breast.
Assay [3] relates to HCT-15 colon.
The subject of assay [4] is SNB-19 CNS.
The test system of assay [5] is MOLT-4 leukemia.
Assay [6] relates to CCRF-CEM leukemia.
Assay [7] deals with HOP-92 NSCLC.
The subject of assay [8] is NCI-H460 lung.
Assay [9] relates to LOX IMVI melanoma.
Assay [10] deals with SF-539 CNS.
In assay [11] the test system is UO-31 renal.
For assay [12], the system named is EKVX NSCLC.
Assay [13] relates to RPMI-8226 leukemia.
Assay [14] concerns HS 578T breast.
Assay [15] concerns MDA-N.

With `Cc1nc2ccc(S(=O)(=O)Nc3ccccn3)cc2c(=O)n1NS(=O)(=O)c1ccccn1`, the TGI in [1], in [2], in [3], in [4], in assay [5] and in assay [6] was over 100 µM throughout. The TGI in assay [7], in [8], in [9], in assay [10], in [11] and in [12] was over 100 µM each time. Also, the TGI in [13], in assay [14] and in [15] was over 100 µM each time.
As to `O=c1oc2ccccc2cc1-c1nc2ccccc2c(=O)[nH]1`, the TGI in [1], in assay [2], in assay [3], in assay [4], in [5] and in [6] was over 100 µM throughout. Further, the TGI in assay [7], in [8], in assay [9], in assay [10], in [11] and in assay [12] was over 100 µM throughout. Also, the TGI in assay [13], in [14] and in assay [15] was over 100 µM throughout.
As to `CN(C)c1ccc(/C=C(\NC(=O)c2ccccc2)c2nc3ccccc3c(=O)o2)cc1`, the TGI in assay [1], in [2], in [3], in assay [4], in assay [5] and in [6] was over 100 µM throughout. Moreover, the TGI in assay [7], in [8], in [9], in assay [10], in [11] and in assay [12] was over 100 µM in each case. Further, the TGI in assay [13], in assay [14] and in assay [15] was over 100 µM each time.
In the case of `Nc1ccc2c(c1)N(C(=O)CCCC(=O)N1CC(CCl)c3ccc(N)cc31)CC2CCl` (stereo not given), the TGI in assay [1] is over 50 µM; in assay [2], 6.53 µM; in assay [3], over 14.6 µM; in [4] it was 11.3 µM; in assay [5], over 50 µM; in assay [6], over 20.1 µM. Also, the TGI in [7] is over 50 µM; in assay [8] it was over 50 µM; in assay [9], 11.3 µM; in [10], 11.3 µM; in assay [11], 2.74 µM; in [12], 7.8 µM. Further, the TGI in assay [13] was over 10.2 µM; in assay [14], 1.94 µM; in assay [15], 3.82 µM.
